Patent US20180055020A1, “Mice With Transgene Of iBox Peptide Inhibitor Of Group B p21-Activated Kinases” (Institute For Cancer Research d/b/a The Research Institute …, priority 2016, published 2018)

How the values were obtained:
Type in all cases: cell-based, mouse
Fak = assay: Immunoblot of lysates of ROSA26-iBox MEFs for signaling molecules (Fak and P-Fak); settings: lysates of MEFs expressing iBox (Adeno-Cre), FIG. 5D
Method: (§1) Primary mouse embryo fibroblasts were established from E14 embryos from pregnant ROSA26-iBox mice. Cell lines were maintained in DMEM medium supplemented with 10% of FBS, 2 mM L-glutamine and 100 Um′ penicillin/streptomycin ay 37° C. in a humidified 5% CO2 incubator. To document iBox and EGFP expression, the MEFs were transduced with Adeno-Cre which removes the LSL cassette. MEFs were imaged to documents EGFP expression and lysates were probed by immunoblot to document iBox expression using anti-GST antibodies that recognize the GST protein that is fused to the N-terminus of iBox. These lysates were also probed with antibodies against Erk and P-Erk, Src and P-Src, Fak and P-Fak, as well as GAPDH.
(§2) To analyze endogenous Pak4 activity, Pak4 was immunoprecipitated from ROSA26-iBox MEFs and Protein-A-Pak4 beads were incubated with recombinant Pacsin or CRTC1 for 10 minutes at 30° C. in a buffer containing 50 mM Tris-HCl, pH 7.5, 10 mM MgCl2, 1 mM DTT, and 50 μM ATP. Reactions were terminated with hot 6×SDS/PAGE buffer and the samples were analyzed by immunoblot using anti-P-pacsin or anti-P-CRTC1 antibodies. […] Inhibition of Erk, Src, and Fak was observed.

Erk = assay: Immunoblot of lysates of ROSA26-iBox MEFs for signaling molecules (Erk and P-Erk); settings: lysates of MEFs expressing iBox (Adeno-Cre), FIG. 5D
Method: as §1, §2

[1] = test system: each of the tissues studied; assay: Cell proliferation on expression of the iBox transgene (preliminary experiments)
Method: Cells were plated at 2×10^3 in 96-well plates and 10 μl of 3-[4,5-dimethylthiazol-2-yl]-2,5-diphenyl tetrazolium bromide (MTT) solution was added to each well to a final concentration of 0.5 mg/ml. The reaction was stopped after 4 hours at 37° C. by adding 100 μl of solubilization solution (10% SDS in 0.01M HCl) and the samples were analyzed at 595 nm on Perkin Elmer Envision plate reader. Triplicates were performed for each sample, and experiments were performed on three occasions. […] An anti-Gst blot is shown.

Src = assay: Immunoblot of lysates of ROSA26-iBox MEFs for signaling molecules (Src and P-Src); settings: lysates of MEFs expressing iBox (Adeno-Cre), FIG. 5D
Method: as §1, §2

For “iBox: Peptide inhibitor of Group B Paks, derived from amino acids 166 to 203 of human INKA-1, linked to GST, expressed from a transgene (GLEAEDWTAALLNRGRSRQPLVLGDNCFADLVHNWMEL; GST fusion; UniProt Q96EL1 166-203, looked up, fragment)”, the “effect on Fak signaling (immunoblot)” value (Fak) was “Inhibition”, the “effect on Erk signaling (immunoblot)” value (Erk) was “Inhibition” and the “effect of iBox transgene expression on cell proliferation” value [1] was “inhibited cell proliferation”. The “effect on Src signaling (immunoblot)” value (Src) was “Inhibition”.
